# Data published in patent US8785383B2, “Mast cell stabilizers in the treatment of obesity” (The Brigham and Women's Hospital, Inc., priority 2007, dated 2014).
# “Also recorded” adds a separate entry of the source.
# Experiments:
# [1] = test system: obese and diabetic WT mice; assay: Treatment of established diet-induced obesity and diabetes (four treatment groups); format: in vivo, mouse
# From the text: To assess the direct participation of mast cells in obesity, we studied mast cell-deficient Kit^W-sh/W-sh mice in diet-induced obesity. While Kit^W-sh/W-sh mice lack mature mast cells due to an inversion mutation of the c-Kit promoter region (Duttlinger, et al., Proc. Nat'l Acad. Sci. USA 92:3754-3758 (1995)), numbers and activities of other leukocytes in blood are normal, permitting probing of mast cell functions in vivo. […] To extend our observations, we fed WT mice a Western diet for 12 weeks to produce obesity and diabetes, and grouped these obese and diabetic mice into four treatment groups: I, continued feeding with a Western diet; II, switched to a chow diet; III, continued feeding with a Western diet together with a daily i.p. injection of DSCG; IV, switched to a chow diet and treated with DSCG.
# [2] = test system: mast cell-deficient Kit^W-sh/W-sh mice; assay: DSCG treatment of mast cell-deficient Kit W-sh/W-sh mice on Western diet; format: in vivo, mouse
# From the text: (§1) Wild-type (C57BL/6), Il6^−/− (C57BL/6, N11), and Ifng^−/− (C57BL/6, N10) mice were purchased from the Jackson Laboratories (Bar Harbor, Me.). Congenic Tnf^−/− (C56BL/6, N10) and mast cell-deficient Kit^W-sh/W-sh (C57BL/6, N>10) mice were generated by back-crossing to the C57BL/6 background as described (Sun, et al. Nat. Med. 13:719-724 (2007); Wolters, et al., Clin Exp Allergy 35:82-88 (2005)). The standing committee of Harvard Medical School approved all animal research protocols, and all mice were housed in a pathogen-free facility. To induce obesity, we fed 6-week-old mice (females and males) a Western diet (Research Diet, New Brunswick, N.J.) for 12-20 weeks. Mouse body weight was monitored weekly. By the end of each course of Western diet consumption, we performed glucose tolerance and energy expenditure assays as reported previously (Yang, et al., Nat. Cell Biol. 9:970-977 (2007)). Mouse blood samples were collected for serum adipokine measurement. Subcutaneous, visceral, and brown fat and skeletal muscle were harvested individually for protein extraction and paraffin section preparation. Tissue protein extracts were used for ELISA, immunoblot analysis, and cysteinyl cathepsin active site labeling. […]
# [3] = test system: Western diet-fed wild-type (C57BL/6) mice; assay: Diet-induced obesity, Western diet with daily i.p. DSCG; format: in vivo, mouse
# From the text: as §1
# [4] = test system: liver, gastrointestinal tract, pancreas
# From the text: Wild-type (C57BL/6), Il6^−/− (C57BL/6, N11), and Ifng^−/− (C57BL/6, N10) mice were purchased from the Jackson Laboratories (Bar Harbor, Me.). Congenic Tnf^−/− (C56BL/6, N10) and mast cell-deficient Kit^W-sh/W-sh (C57BL/6, N>10) mice were generated by back-crossing to the C57BL/6 background as described (Sun, et al. Nat. Med. 13:719-724 (2007); Wolters, et al., Clin Exp Allergy 35:82-88 (2005)). The standing committee of Harvard Medical School approved all animal research protocols, and all mice were housed in a pathogen-free facility. To induce obesity, we fed 6-week-old mice (females and males) a Western diet (Research Diet, New Brunswick, N.J.) for 12-20 weeks. Mouse body weight was monitored weekly. […]
# Human and mouse WAT and muscle tissues were fixed with 10% formalin overnight and embedded in paraffin, from which 5 μm sections were prepared. […] Researchers blinded to the origin of tissue counted human tryptase-positive and CD117-positive mast cells, and data are presented as cell numbers per mm^2. CD31-positive areas in WAT and muscle were determined using Image-Pro Plus software as described, and data were presented as percentage of CD31-positive areas (Wang, et al., J. Biol. Chem. 281:6020-6029 (2006); Wild, Microvasc Res. 59:368-376 (2000)). […]
# [5] = test system: CD117-positive mast cells and CD31-positive areas in WAT and muscle; assay: Immunohistology of WAT and muscle (CD117 mast cells, CD31 microvessels); format: in vivo, mouse; conditions: DSCG-treated vs untreated mice, same dietary conditions
# Procedure: Human and mouse WAT and muscle tissues were fixed with 10% formalin overnight and embedded in paraffin, from which 5 μm sections were prepared. Anti-human mast cell tryptase (mouse monoclonal, 1:100, Dako, TRAPPES CEDEX, France), anti-mouse mast cell CD117 (rat monoclonal, 1:10, eBiosciences, Inc., San Diego, Calif.), and anti-mouse CD31 (rat monoclonal, 1:400, Pharmingen, San Diego, Calif.) immunostained for mast cells and microvessels on WAT, muscle, and liver sections. Researchers blinded to the origin of tissue counted human tryptase-positive and CD117-positive mast cells, and data are presented as cell numbers per mm^2. CD31-positive areas in WAT and muscle were determined using Image-Pro Plus software as described, and data were presented as percentage of CD31-positive areas (Wang, et al., J. Biol. Chem. 281:6020-6029 (2006); Wild, Microvasc Res. 59:368-376 (2000)). Hematoxylin and eosin staining assisted histologic assessment of the GI tract.
# [6] = test system: IL6, TNF-α, IFN-γ, MCP-1, adiponectin, MMP-9, CatS, CatL, leptin in serum and/or WAT; assay: ELISA of serum and WAT adipokines; format: in vivo, mouse
# From the text: Mouse body weight was monitored weekly. […] Mouse blood samples were collected for serum adipokine measurement.
# Frozen mouse WAT was pulverized and lysed in a RIPA buffer (Pierce, Rockford, Ill.) containing a protease inhibitor cocktail (Calbiochem, San Diego, Calif.). Both WAT and serum samples were subjected to ELISA analysis for IL6 (BD Biosciences), TNF-α (PeproTech, Rocky Hill, N.J.), IFN-γ (PeproTech), MCP-1 (PeproTech), adiponectin (R&D Systems), MMP-9 (R&D Systems), CatS (R&D Systems), and CatL (Bender MedSystems Inc, Burlingame, Calif.) according to manufacturers' instructions.
# [7] = test system: UCP1, fibronectin, Glut4, insulin receptor; assay: Immunoblot analysis of tissue protein extracts; format: in vivo, mouse
# From the text: Wild-type (C57BL/6), Il6^−/− (C57BL/6, N11), and Ifng^−/− (C57BL/6, N10) mice were purchased from the Jackson Laboratories (Bar Harbor, Me.). Congenic Tnf^−/− (C56BL/6, N10) and mast cell-deficient Kit^W-sh/W-sh (C57BL/6, N>10) mice were generated by back-crossing to the C57BL/6 background as described (Sun, et al. Nat. Med. 13:719-724 (2007); Wolters, et al., Clin Exp Allergy 35:82-88 (2005)). The standing committee of Harvard Medical School approved all animal research protocols, and all mice were housed in a pathogen-free facility. To induce obesity, we fed 6-week-old mice (females and males) a Western diet (Research Diet, New Brunswick, N.J.) for 12-20 weeks. Mouse body weight was monitored weekly. By the end of each course of Western diet consumption, we performed glucose tolerance and energy expenditure assays as reported previously (Yang, et al., Nat. Cell Biol. 9:970-977 (2007)). Mouse blood samples were collected for serum adipokine measurement. Subcutaneous, visceral, and brown fat and skeletal muscle were harvested individually for protein extraction and paraffin section preparation. Tissue protein extracts were used for ELISA, immunoblot analysis, and cysteinyl cathepsin active site labeling. For immunoblot analysis, 30 μg of proteins were separated on an 8% SDS-PAGE to detect 220 kDa fibronectin (mouse monoclonal, 1:100, NeoMarkers, Fremont, Calif.) and 200 kDa insulin receptor (mouse monoclonal, 1:100, Calbiochem, San Diego, Calif.) or a 12% SDS-PAGE to detect Glut4 (mouse monoclonal, 1:200, R&D Systems, Minneapolis, Minn.), UCP1 (rabbit polyclonal, 1:3000, Abcam, Cambridge, Mass.), actin (mouse monoclonal, 1:500, Abcam), and glyceraldehyde-3-phosphate dehydrogenase (GAPDH, rabbit polyclonal, 1:1000, Santa Cruz Biotechnolog, Santa Cruz, Calif.). For cathepsin active site labeling, 30 μg of proteins were incubated with 1 μl of 600 mM dithiothreitol and 1 μl of [^125I]-JPM in a pH5.5 buffer as previously described. After incubating the reaction mixture at 37° C. for 1 hour, labeled proteins were separated on a 12% SDS-PAGE. Gel was stained with Coomassie blue, destained, dried, and exposed to an x-ray film. The liver and GI tract were harvested for histologic analysis.
# [8] = test system: Western diet-fed wild-type (C57BL/6) mice; assay: Energy expenditure assay; format: in vivo, mouse; conditions: DSCG-treated WT mice vs untreated WT mice
# From the text: as §1
# [9] = test system: Western diet-fed wild-type (C57BL/6) mice; assay: Glucose tolerance assay in Western diet-fed mice; format: in vivo, mouse; conditions: WT mice treated with DSCG
# From the text: as §1
smiles,measurement,setting,value
"O=C(O)c1cc(=O)c2c(OCC(O)COc3cccc4oc(C(=O)O)cc(=O)c34)cccc2o1 [DSCG, disodium cromoglycate]",body weight decrease,"[1]; group III: obese mice, continued Western diet plus daily i.p. DSCG, eight weeks",12%
same,glucose tolerance,"[1]; group IV: chow diet plus DSCG, compared among four groups",highest glucose tolerance among the four groups
same,body weight at which mice stabilized,"[1]; group IV: chow diet plus DSCG, eight weeks",40˜41 grams
same,body weight decrease,"[1]; group IV: obese mice switched to chow diet and treated with DSCG, eight weeks",19%
same,glucose tolerance in Kit^W-sh/W-sh mice,[2],did not further change
same,body weight (gain) of Kit^W-sh/W-sh mice,[2]; Western diet,did not further affect the body weight; also recorded: did not further change
same,body weight gain,"[3]; male WT mice, Western diet 12 weeks, daily i.p. injection, vs untreated WT",attenuated body weight gain
same,total subcutaneous and visceral fat,"[3]; male mice, Western diet, vs untreated WT controls",significantly less total subcutaneous and visceral fat
same,mast cells or lipid-loaded adipocytes in livers,[4]; Western diet-fed WT mice treated with DSCG,did not detect mast cells or lipid-loaded adipocytes
same,food/water intake and toxic effect,"[4]; mouse, in vivo",neither reduced food/water intake nor any toxic effect of DSCG
same,mast cell numbers in WAT,[5],mast cell numbers similar to WAT from untreated mice
same,serum leptin levels,"[6]; male and female mice, Western diet, vs WT controls",significantly lower levels
same,CatS levels in serum (ELISA),[6]; serum,reduced significantly
same,CatL level,"[6]; serum and/or WAT, Western diet",did not change significantly
same,IFN-γ level,"[6]; serum and/or WAT, Western diet",lower levels
same,IL6 level,"[6]; serum and/or WAT, Western diet",lower levels
same,MCP-1 level,"[6]; serum and/or WAT, Western diet",lower levels
same,TNF-α level,"[6]; serum and/or WAT, Western diet",lower levels
same,adiponectin level,"[6]; serum and/or WAT, Western diet",did not change significantly
same,cathepsin S (CatS) level,"[6]; serum and/or WAT, Western diet",lower levels
same,matrix metalloprotease-9 (MMP-9) level,"[6]; serum and/or WAT, Western diet",lower levels
same,Glut4 in WAT and muscle,[7]; DSCG-treated mice,more
same,fibronectin in WAT and muscle,[7]; DSCG-treated mice,more
same,insulin receptor (IR) in WAT and muscle,[7]; DSCG-treated mice,more
same,brown fat UCP1 expression,"[7]; brown fat, vs WT control mice",obviously higher brown fat UCP1 expression
same,O2 consumption and CO2 production,[8],significantly more O2 consumption and CO2 production
same,resting metabolic rate,[8],increased resting metabolic rate
same,glucose tolerance,[9],significantly improved glucose tolerance
